Read-outs that look alike come from different tables or passages of the source.

Data set [1] in a line: Plasma protein binding by equilibrium dialysis, human. Format: in vitro ADME. Conditions: read-out: fu (human). On the procedure:
The binding of test substances to plasma proteins is determined by equilibrium dialysis by means of the Ht-dialysis apparatus (96-well) made of Teflon and a semipermeable membrane (regenerated cellulose, MWCO 12-14K). This separates 150 μl each of a plasma side and a buffer side (50 mM phosphate buffer). The test substance is added in 2 concentrations (usually 3 and 0.3 μM) to the plasma side and binds to plasma proteins. The unbound fraction of the test substance passes through the membrane and is distributed on either side until equilibrium is established (after approx. 6-8 h at 37° C.). The substance concentration on the buffer side and the plasma side is determined by LC-MS analysis. For this, both sides are brought by dilution with buffer or plasma to the same matrix (10% plasma) and then precipitated with methanol. The free (unbound) fraction (fu) is calculated from the quotient of the buffer and plasma concentration. Stability tests and recovery tests are run concurrently as controls. In addition, the substance in buffer is dialysed against buffer, to check the nonspecific binding to apparatus and membrane and establishment of equilibrium. Because during incubation the osmotic pressure of the plasma proteins leads to dilution of the plasma (volume shift), this possible error is determined by weighing blank plasma samples and is included in the calculation of fu. Establishment of equilibrium and plasma stability should have a value not lower than 80% and the recovery should be at least 30%. A free fraction of <1% is regarded as high, between 1 and 10% as moderate and >10% as low plasma protein binding.

A short description of data set [2]: Pharmacokinetic parameters in the rat (i.v. and intragastric). Conditions: for clearance / Vd / half-life: male, iv; for clearance: read-out: CLplasma (converted); for Vd: read-out: Vss; for half-life: read-out: t½ (converted). It is filed as in vivo. The protocol:
For this, the test substances were applied in dissolved form both for intravenous, and for intragastric application, wherein compatible solubilizers such as PEG400 and/or ethanol were used in a compatible amount.
(§1) The test substances were applied at a dose of 0.1-1 mg/kg. Administration was as a bolus injection in the male rat and as an infusion in the female dog (15 min). At various time points after the bolus injection, and before and after the 15-minute infusion, blood samples of about 100-150 μl were removed via a catheter either from the jugular vein (rat) or from the saphenous vein (dog). Lithium-heparin was added as anticoagulant to the blood samples and they were stored in a refrigerator until required for further processing. After centrifugation of the samples for 15 min at 3000 rpm, an aliquot of 100 μl was taken from the supernatant (plasma) and was precipitated by adding 400 μl of cold ACN or methanol (absolute). The precipitated samples were frozen-out at 20° C. overnight, then centrifuged again at 3000 rpm for 15 min, before 150 μl of the clear supernatant were removed to determine the concentration. The analysis was effected by means of an Agilent 1200 HPLC system with connected LCMS/MS detection.
Calculation of the PK parameters (using PK calculation software, e.g. WinNonLin®): CLplasma: total plasma clearance of the test substance (in l*kg/h); CLblood: total blood clearance of the test substance (in l*kg/h),
where (CLblood=CLplasma*Cp/Cb); Vss: apparent steady-state distribution volume (in 1/kg); t1/2: half-life within a specified interval (here: terminal t1/2, in h); AUCnorm: area under the plasma concentration time profile from time point zero extrapolated to infinity divided by the dose normalized for body weight (in kg*l/h); AUC(0-tn)norm: integrated area under the plasma concentration time profile from time point zero until the last time point at which a plasma concentration was measurable, divided by the dose normalized for body weight (in kg*l/h); Cmax: maximum concentration of the test substance in the plasma (in μg/l); Cmax,norm: maximum concentration of the test substance in the plasma divided by the dose normalized for body weight (in kg/1); Cb/Cp: ratio of the blood to plasma concentration distribution.
as §1, with “administered to fasting male rats or female dogs” for “applied”, “0.3-1 mg/kg intragastrically” for “0.1-1 mg/kg. Administration was”, “using a feeding tube.” for “injection in the male rat and as an infusion in the female dog (15 min).”, “administration,” for “the bolus injection, and before and after the 15-minute infusion,”, “−20°” for “20°”, “centrifuged” for “centrifuged again”
Calculation of the PK Parameters (Using PK Calculation Software, e.g. WinNonLin®): […]

Data set [3] can be described thus: Maximum tolerated dose (MTD) in the mouse. It is filed as in vivo. To be noted: for Deaths: 21 days; for MTD at 21 days: female, NMRI-nude (nu/nu), mouse, in vivo, oral, 21-day treatment. On the procedure: The MTD was defined as the highest dose which could be administered without any animal dying during the treatment phase, and without any body weight loss of more than 10% compared to the initial weight.
Example 1-1 was administered to female nude mice (NMRI nu/nu):
The treatment phase was followed by an observation phase of 21 days.

Data set [4] can be described thus: PC-3 prostate carcinoma xenograft model in the mouse. Conditions: male, NMRI-nude (nu/nu), mouse, in vivo, po. The protocol:
Xenograft models in immunosuppressed mice were used to determine the antitumour activity in living organisms.
Use was made primarily of a prostate carcinoma model with hormone-independent human PC-3 cells in male nude mice (NMRI-nude (nu/nu) mice, Taconic M&B A/S). To this end, 3 million tumour cells (suspended in medium+Matrigel) 1:1, final 0.1 ml) were injected subcutaneously into the side of each animal. When the tumours extended to an area of 20-30 mm^2., the mice were randomized into therapy groups and therapy was initiated. […] At this point in time, the experiment was terminated in all groups and the prepared tumours were weighed. The T/C value was calculated as primary success parameter using the effect on the final tumour weight: mean tumour weight in the treatment group divided by mean of the tumour weight in the vehicle group.
Administration route: per os Vehicle: PEG400/ethanol/Solutol HS 15 (70/5/25, v/v/v) Administration volume: 10 ml/kg

The nature of data set [5]: Prediction of human pharmacokinetic parameters and human therapeutic dosage.
Description: The human pharmacokinetic (PK) parameters (Table 9) were predicted based on the in vivo PK parameters obtained for rats (single species scaling), taking into account the interspecies differences in the free fraction (fu) in the plasma. The effective AUC (area under curve) was determined based on the measured plasma concentration time profile for in vivo efficacy in the PC3 tumour model of the mouse (nu/nu mouse).
Data set [6] deals with Tetranychus urticae. Nature of the data set: Tetranychus test, OP-resistant (TETRUR spray treatment). Format: in vivo. To be noted: Tetranychus urticae, 144 h, read-out: effect (kill of spider mites).

For the molecule `Cc1ccc(-c2ccc(Cl)c(F)c2)cc1C1=C(O)C2(CCC(F)(F)CC2)NC1=O` [Example 1-1, 3-(4′-Chloro-3′-fluoro-4-methylbiphenyl-3-yl)-8,8-difluoro-4-hydroxy-1-azaspiro[4.5]dec-3-en-2-one], the fraction unbound in data set [1] was determined as 0.0035. This molecule gave a CLblood in data set [2] of 0.367 mL/min/kg. In addition, in data set [2], the F stood at 95%. In data set [2] (plasma), the clearance was 0.167 mL/min/kg. The Vd in data set [2] (plasma) turned out to be 0.55 L/kg. For the same molecule, the half-life in data set [2] (plasma) is 40 h. The Deaths in data set [3] (12.5 mg/kg per os, 1 administration per day) is recorded as 0 of 4; in data set [3] (25 mg/kg per os, 1 administration per day) it was 0 of 4; in data set [3] (50 mg/kg per os, 1 administration per day), 0 of 4; in data set [3] (50 mg/kg per os, 2 administrations per day), 0 of 4; in data set [3] (75 mg/kg per os, 1 administration per day), 0 of 4; in data set [3] (100 mg/kg per os, 1 administration per day) it was 0 of 4. For the same molecule, the MTD at 21 days in data set [3] (50 mg/kg, administration twice per day) was over 50 mg/kg; in data set [3] (administration once per day), over 100 mg/kg. Moreover, the AUC in data set [4] (40 mg/kg) amounted to 376 µg·h/mL; in data set [4] (80 mg/kg) it was 6080 µg·h/mL. The “calc. AUC (human)” value is 1882 µg·h/mL in data set [5] (from mouse dosage 40 mg/kg 2 × per day) and 3041 µg·h/mL in data set [5] (from mouse dosage 80 mg/kg 2 × per day). Moreover, in data set [5] (predicted (fu-corrected), single species scaling from rat), the “pred. CL (human)” value was 0.05 mL/min/kg. Further, the pest or weed control at 100 g/ha in data set [6] came out at 90%.
As for `Cc1ccc(-c2ccc(Cl)cc2)cc1C1=C(O)C2(CCC(F)(F)CC2)NC1=O` [Example 1-2, 3-(4′-Chloro-4-methylbiphenyl-3-yl)-8,8-difluoro-4-hydroxy-1-azaspiro[4.5]dec-3-en-2-one], in data set [1], the fraction unbound is 0.0042. Further, in data set [2], the CLblood worked out at 0.2 mL/min/kg and the F was 123%. Moreover, in data set [2] (in vivo), the clearance is 0.1 mL/min/kg, the Vd amounted to 0.36 L/kg and the half-life is 52 h. Also, the pest or weed control at 100 g/ha in data set [6] was found to be 100%.

The record behind these values is patent US20140011853A1, “SUBSTITUTED 3-(BIPHENYL-3-YL)-8,8-DIFLUORO-4-HYDROXY-1-AZASPIRO[4.5]DEC-3-EN-2-ONES FOR THERAPY” (BAYER INTELLECTUAL PROPERTY GMBH, priority 2011, published 2014).
